Here are results for five molecules from ChEMBL document CHEMBL1201862, “PubChem BioAssay data set” (2004).

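Tested at 5 concentrations; 48 h exposure; 96-well plates; endpoints linearly interpolated, else capped at highest concentration. GI50 is the concentration that inhibits growth by half.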 Calls of active or inactive are those of the source. No stated cut-off is given here; in the data, active = GI50 up to about 1.1 µM and inactive = higher.

Among the test systems are MDA-MB-231; HOP-92; HCT-15; ACHN; SK-MEL-28; NCI/ADR-RES; SNB-19; EKVX; HCC 2998; Hs-578T; T47D; SN12C; SF-539; NCI-H226; A549; DMS-114; SW-620; OVCAR-3; SNB-78; LOX IMVI.
What all share (experiment): DTP human tumour cell line panel, 48 h

Regarding `COc1ccc(C2C(C)C(=O)C(C)C(c3ccc(OC)cc3)N2N=O)cc1` (stereo not given), the GI50 in the test with MDA-MB-231 was 27.2 µM (inactive); with HOP-92 it was 53.5 µM (inactive); with HCT-15 it was above 1000 µM; in the test with ACHN, 175 µM (inactive); in the test with SK-MEL-28 it was > 640 µM (inactive); in the test with NCI/ADR-RES it was 258 µM (inactive). Also, the GI50 was 195 µM (inactive) in the test on SNB-19; > 830 µM (inactive) with EKVX; > 750 µM (inactive) with HCC 2998; 56.5 µM (inactive) with Hs-578T; 127 µM (inactive) in the test with T47D; 530 µM (inactive) in the test with SN12C. For the same molecule, the GI50 is > 75.5 µM (inactive) with SF-539; 207 µM (inactive) in the test with NCI-H226; 239 µM (inactive) in the test on A549; > 750 µM (inactive) with DMS-114; > 1000 µM (inactive) in the test with SW-620; 454 µM (inactive) in the test on OVCAR-3. Further, the GI50 was 121 µM (inactive) in the test with SNB-78 and 453 µM (inactive) in the test on LOX IMVI.

In the case of `CSC(=N\c1ccccc1)/N=C(\SCc1ccccc1)N(C)C`, the GI50 is 1.17 µM (inactive) in the test with MDA-MB-231; 1.4 µM (inactive) with HOP-92; 0.463 µM in the test with HCT-15; 1 µM (active) in the test on ACHN; 0.581 µM (active) in the test with SK-MEL-28; 1.38 µM (inactive) in the test on NCI/ADR-RES. The GI50 in the test on SNB-19 is 1.39 µM (inactive); with EKVX, 1.63 µM (inactive); with HCC 2998, 0.359 µM (active); in the test with Hs-578T, 0.859 µM (active); in the test with T47D, 0.427 µM (active); in the test with SN12C it was 1.02 µM (active). Also, the GI50 is 1.28 µM (inactive) in the test with SF-539; 1.49 µM (inactive) in the test on NCI-H226; 1.75 µM (inactive) with A549; 1.09 µM (active) in the test on DMS-114; 0.312 µM (active) in the test with SW-620; 0.869 µM (active) with OVCAR-3. The GI50 was 1.63 µM (inactive) in the test on SNB-78 and 0.189 µM (active) in the test with LOX IMVI.

With `COC1N(C2CC(O)C(CO)O2)C(=O)NC(=O)C1(F)Br` (stereo not given), the GI50 is > 57.1 µM (inactive) in the test with MDA-MB-231; 22 µM (inactive) with HOP-92; 13.4 µM in the test on HCT-15; 1.88 µM (inactive) with ACHN; 9.86 µM (inactive) with SK-MEL-28; 10.7 µM (inactive) in the test with NCI/ADR-RES. For the same molecule, the GI50 with SNB-19 was 41.2 µM (inactive); with EKVX, 67.1 µM (inactive); with HCC 2998, 0.887 µM (active); with Hs-578T, 24.5 µM (inactive); with T47D it was > 72.3 µM (inactive); in the test with SN12C, 9.25 µM (inactive). Also, the GI50 was 0.239 µM (active) with SF-539; > 50 µM (inactive) in the test with NCI-H226; 1.12 µM (active) in the test with A549; 43.9 µM (inactive) in the test on DMS-114; 32.8 µM (inactive) with SW-620; 10.7 µM (inactive) with OVCAR-3. Moreover, the GI50 in the test on SNB-78 was > 50 µM (inactive); with LOX IMVI it was 6.1 µM (inactive).

For `Cc1c2cc[n+](C)c(C)c2cc2c1[nH]c1ccccc12`, the GI50 in the test with MDA-MB-231 was 2.51 µM (inactive); in the test on HOP-92 it was 7.46 µM (inactive); in the test on HCT-15, above 100 µM; in the test with ACHN it was 36.3 µM (inactive); in the test on SK-MEL-28 it was 5.41 µM (inactive); in the test on NCI/ADR-RES, 71.1 µM (inactive). For the same molecule, the GI50 is 0.8 µM (active) in the test on SNB-19; 5.46 µM (inactive) in the test with EKVX; 7.78 µM (inactive) with HCC 2998; 0.818 µM (active) in the test on Hs-578T; 2.14 µM (inactive) in the test on T47D; 0.627 µM (active) in the test on SN12C. For the same molecule, the GI50 is 2.96 µM (inactive) with SF-539; 1.69 µM (inactive) in the test on NCI-H226; 1.59 µM (inactive) in the test with A549; 1.57 µM (inactive) in the test on DMS-114; 8.09 µM (inactive) with SW-620; 5 µM (inactive) in the test with OVCAR-3. Besides, the GI50 is 5.05 µM (inactive) with SNB-78 and 21.7 µM (inactive) in the test on LOX IMVI.

Take `C=CCc1cc(-c2cc(CC=C)c(O)c(CN(CC)CC)c2)cc(CN(CC)CC)c1O`: the GI50 was 26 µM (inactive) with MDA-MB-231; 18 µM (inactive) in the test with HOP-92; 15.8 µM in the test with HCT-15; 80 µM (inactive) in the test on ACHN; 28.6 µM (inactive) with SK-MEL-28; 73.1 µM (inactive) in the test on NCI/ADR-RES. For the same molecule, the GI50 with SNB-19 is > 97.3 µM (inactive); in the test with EKVX it was > 80.9 µM (inactive); with HCC 2998, 29 µM (inactive); with Hs-578T, 28.5 µM (inactive); in the test on T47D, 43 µM (inactive); with SN12C, 85.1 µM (inactive). For the same molecule, the GI50 is 21.4 µM (inactive) in the test on SF-539; 48.9 µM (inactive) with NCI-H226; 71.6 µM (inactive) in the test on A549; > 52.6 µM (inactive) with DMS-114; 25.5 µM (inactive) in the test with SW-620; 64 µM (inactive) with OVCAR-3. Further, the GI50 in the test with SNB-78 was > 100 µM (inactive); with LOX IMVI, 16 µM (inactive).

In general, GI50 refers to the concentration at which growth is held to half of that of the control.
